Measurements reported in article PMC7377239, “Cardiovascular Effects of Polychlorinated Biphenyls and Their Major Metabolites” (Environmental Health Perspectives, 2020).
Where two headings read alike, the source gives them in different places.

System: iCell cardiomyocytes (human iPSC-derived cardiomyocytes)
Test: Intracellular Ca2+ flux / beating parameters in iCell cardiomyocytes (FLIPR tetra), 90 min or 24 h
Format: cell-based
Settings: Homo sapiens, Cardiomyocyte, 0.00 µM = 100.00; for activity at 0.1 µM: 0.10 µM
Procedure, shortened: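 PODs were defined as the concentration crossing one SD of the vehicle-control means (0.5% DMSO) on four-parameter logistic fits of Ca2+ trace metrics (peak height, frequency, peak-spacing CV, decay/rise ratio). Traces came from 100 s, 8 Hz FLIPR reads at 37 °C on calcium-dye-loaded iCell cardiomyocytes. Before reading, cells were treated for 90 min or 24 h from 5× chemical plates spanning 0.05–500 µM, in triplicate.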

[1] = 1.5 h, 90min, read-out: cm.amp.avg.90min
[2] = 1.5 h, 90min, read-out: cm.amp.cv.90min
[3] = 1.5 h, 90min, read-out: cm.bpm.90min
[4] = 1.5 h, 90min, read-out: cm.decay.rise.90min
[5] = 1.5 h, 90min, read-out: cm.spacing.cv.90min
[6] = 24 h, 24hrs, read-out: cm.amp.avg.24hrs
[7] = 24 h, 24hrs, read-out: cm.amp.cv.24hrs
[8] = 24 h, 24hrs, read-out: cm.bpm.24hrs
[9] = 24 h, 24hrs, read-out: cm.decay.rise.24hrs
[10] = 24 h, 24hrs, read-out: cm.spacing.cv.24hrs

With `COc1cc(Cl)c(-c2cc(Cl)ccc2Cl)cc1Cl` [4-OMe PCB52] the activity at 0.01 µM [1] was 106%, the activity at 0.01 µM [2] was 122% and the activity at 0.01 µM [3] was 97.8%. For the same compound, the activity at 0.01 µM [4] was 97.5%, the activity at 0.01 µM [5] was 105% and the activity at 0.1 µM [1] was 106%. For the same compound, the activity at 0.1 µM [2] was 92.7%, the activity at 0.1 µM [3] was 102% and the activity at 0.1 µM [4] was 99.6%. The activity at 0.1 µM [5] was 88%, the activity at 1 µM [1] was 107% and the activity at 1 µM [2] was 113%. For the same compound, the activity at 1 µM [3] was 100%, the activity at 1 µM [4] was 97% and the activity at 1 µM [5] was 94.3%. The activity at 10 µM [1] was 83.3%, the activity at 10 µM [2] was 119% and the activity at 10 µM [3] was 120%. For the same compound, the activity at 10 µM [4] was 91.9%, the activity at 10 µM [5] was 108% and the activity at 100 µM [1] was 0%. For the same compound, the activity at 100 µM [2] was 0%, the activity at 100 µM [3] was 0% and the activity at 100 µM [4] was 0%. It also gave an activity at 100 µM [5] of 0%, an activity at 0.01 µM [6] of 89% and an activity at 0.01 µM [7] of 35.4%. For the same compound, the activity at 0.01 µM [8] was 54.4%, the activity at 0.01 µM [9] was 45.5% and the activity at 0.01 µM [10] was 56.2%. For the same compound, the activity at 0.1 µM [6] was 164%, the activity at 0.1 µM [7] was 69.5% and the activity at 0.1 µM [8] was 109%. It also gave an activity at 0.1 µM [9] of 100%, an activity at 0.1 µM [10] of 108% and an activity at 1 µM [6] of 166%. For the same compound, the activity at 1 µM [7] was 70.7%, the activity at 1 µM [8] was 95.5% and the activity at 1 µM [9] was 109%. It also gave an activity at 1 µM [10] of 102%, an activity at 10 µM [6] of 138% and an activity at 10 µM [7] of 81.2%. The activity at 10 µM [8] was 104%, the activity at 10 µM [9] was 107% and the activity at 10 µM [10] was 102%. The activity at 100 µM [6] was 0%, the activity at 100 µM [7] was 0% and the activity at 100 µM [8] was 0%. The activity at 100 µM [9] was 0% and the activity at 100 µM [10] was 0%.
